Assay results reported in ChEMBL document CHEMBL1201862, “PubChem BioAssay data set” (2004).
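The compound was tested at five concentrations on cells cultured in 96-well plates, with a 48-hour exposure period. The concentration for 50% growth inhibition is given as GI50.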 Active and inactive are the calls of the source. No stated cut-off is given here; in the data, active = GI50 up to about 1.1 µM and inactive = higher.

Columns and labels:
Test in all cases: NCI tumour cell line growth inhibition, 48 h
MCF7 = tested on: MCF7
CCRF-CEM = tested on: CCRF-CEM
NCI-H460 = tested on: NCI-H460
SK-MEL-5 = tested on: SK-MEL-5
PC-3 = tested on: PC-3
KM12 = tested on: KM12
T47D = tested on: T47D
UO-31 = tested on: UO-31
MDA-MB-231 = tested on: MDA-MB-231
OVCAR-4 = tested on: OVCAR-4
NCI-H23 = tested on: NCI-H23
U-251 = tested on: U-251
HL-60 = tested on: HL-60
A549 = tested on: A549
ACHN = tested on: ACHN
Malme-3M = tested on: Malme-3M
IGROV-1 = tested on: IGROV-1
SF-268 = tested on: SF-268
CAKI-1 = tested on: CAKI-1
SK-OV-3 = tested on: SK-OV-3
M14 = tested on: M14
HOP-62 = tested on: HOP-62
TK-10 = tested on: TK-10
NCI-H522 = tested on: NCI-H522
LOX IMVI = tested on: LOX IMVI
RPMI-8226 = tested on: RPMI-8226
MOLT-4 = tested on: MOLT-4
OVCAR-8 = tested on: OVCAR-8
OVCAR-3 = tested on: OVCAR-3
BT-549 = tested on: BT-549
SN12C = tested on: SN12C
SNB-75 = tested on: SNB-75
OVCAR-5 = tested on: OVCAR-5
SF-539 = tested on: SF-539
MDA-MB-435 = tested on: MDA-MB-435
A498 = tested on: A498
NCI-H226 = tested on: NCI-H226
HCT-15 = tested on: HCT-15
SF-295 = tested on: SF-295
SW-620 = tested on: SW-620
EKVX = tested on: EKVX
NCI/ADR-RES = tested on: NCI/ADR-RES
SK-MEL-2 = tested on: SK-MEL-2
HT-29 = tested on: HT-29
HCC 2998 = tested on: HCC 2998
DU-145 = tested on: DU-145
SNB-19 = tested on: SNB-19
UACC-257 = tested on: UACC-257
COLO 205 = tested on: COLO 205
MDA-N = tested on: MDA-N
UACC-62 = tested on: UACC-62
Hs-578T = tested on: Hs-578T
HCT-116 = tested on: HCT-116
K562 = tested on: K562
HOP-92 = tested on: HOP-92
786-0 = tested on: 786-0
RXF 393 = tested on: RXF 393
SR = tested on: SR
SK-MEL-28 = tested on: SK-MEL-28

Compound: COc1ccc2c(c1)C1Oc3ccccc3CC1CO2 (stereo not given)
- GI50 (MCF7): 78.2 µM (inactive)
- GI50 (CCRF-CEM): > 100 µM (inactive)
- GI50 (NCI-H460): 96.8 µM (inactive)
- GI50 (SK-MEL-5): 32.6 µM (inactive)
- GI50 (PC-3): 46.1 µM (inactive)
- GI50 (KM12): 37.2 µM (inactive)
- GI50 (T47D): 26.2 µM (inactive)
- GI50 (UO-31): 22.3 µM (inactive)
- GI50 (MDA-MB-231): 16.8 µM (inactive)
- GI50 (OVCAR-4): 43.9 µM (inactive)
- GI50 (NCI-H23): > 100 µM (inactive)
- GI50 (U-251): 91.8 µM (inactive)
- GI50 (HL-60): 21.2 µM (inactive)
- GI50 (A549): 55.3 µM (inactive)
- GI50 (ACHN): 60.1 µM (inactive)
- GI50 (Malme-3M): 54 µM (inactive)
- GI50 (IGROV-1): > 100 µM (inactive)
- GI50 (SF-268): > 100 µM (inactive)
- GI50 (CAKI-1): 56.8 µM (inactive)
- GI50 (SK-OV-3): 97.5 µM (inactive)
- GI50 (M14): 75.3 µM (inactive)
- GI50 (HOP-62): > 100 µM (inactive)
- GI50 (TK-10): 73.1 µM (inactive)
- GI50 (NCI-H522): 45 µM (inactive)
- GI50 (LOX IMVI): 47.2 µM (inactive)
- GI50 (RPMI-8226): 25.6 µM (inactive)
- GI50 (MOLT-4): 21.5 µM (inactive)
- GI50 (OVCAR-8): 83.9 µM (inactive)
- GI50 (OVCAR-3): 57.7 µM (inactive)
- GI50 (BT-549): 52.2 µM (inactive)
- GI50 (SN12C): 35.4 µM (inactive)
- GI50 (SNB-75): 28.4 µM (inactive)
- GI50 (OVCAR-5): > 100 µM (inactive)
- GI50 (SF-539): > 100 µM (inactive)
- GI50 (MDA-MB-435): 47 µM (inactive)
- GI50 (A498): 34.4 µM (inactive)
- GI50 (NCI-H226): > 100 µM (inactive)
- GI50 (HCT-15): 34.1 µM
- GI50 (SF-295): 76.4 µM (inactive)
- GI50 (SW-620): 63.1 µM (inactive)
- GI50 (EKVX): 47.2 µM (inactive)
- GI50 (NCI/ADR-RES): 42.1 µM (inactive)
- GI50 (SK-MEL-2): 21.5 µM (inactive)
- GI50 (HT-29): 42 µM (inactive)
- GI50 (HCC 2998): 19.7 µM (inactive)
- GI50 (DU-145): > 100 µM (inactive)
- GI50 (SNB-19): > 100 µM (inactive)
- GI50 (UACC-257): 35.9 µM (inactive)
- GI50 (COLO 205): 53.1 µM (inactive)
- GI50 (MDA-N): 37.6 µM (inactive)
- GI50 (UACC-62): 98.2 µM (inactive)
- GI50 (Hs-578T): 34 µM (inactive)
- GI50 (HCT-116): 44.7 µM (inactive)
- GI50 (K562): 52.2 µM (inactive)
- GI50 (HOP-92): 25.2 µM (inactive)
- GI50 (786-0): 47.4 µM (inactive)
- GI50 (RXF 393): 24.9 µM (inactive)

Compound: O=C(O)c1cc(-c2ccc3cc(O)c(O)cc3c2)ccc1O
- GI50 (MCF7): > 12.5 µM (inactive)
- GI50 (SR): > 12.5 µM (inactive)
- GI50 (CCRF-CEM): > 12.5 µM (inactive)
- GI50 (NCI-H460): > 12.5 µM (inactive)
- GI50 (SK-MEL-5): > 12.5 µM (inactive)
- GI50 (PC-3): > 12.5 µM (inactive)
- GI50 (KM12): > 12.5 µM (inactive)
- GI50 (T47D): > 12.5 µM (inactive)
- GI50 (SK-MEL-28): > 12.5 µM (inactive)
- GI50 (UO-31): > 12.5 µM (inactive)
- GI50 (MDA-MB-231): > 12.5 µM (inactive)
- GI50 (NCI-H23): > 12.5 µM (inactive)
- GI50 (U-251): > 12.5 µM (inactive)
- GI50 (HL-60): > 12.5 µM (inactive)
- GI50 (A549): > 12.5 µM (inactive)
- GI50 (ACHN): > 12.5 µM (inactive)
- GI50 (Malme-3M): > 12.5 µM (inactive)
- GI50 (IGROV-1): > 12.5 µM (inactive)
- GI50 (SF-268): > 12.5 µM (inactive)
- GI50 (CAKI-1): > 12.5 µM (inactive)
- GI50 (SK-OV-3): > 12.5 µM (inactive)
- GI50 (M14): > 12.5 µM (inactive)
- GI50 (HOP-62): > 12.5 µM (inactive)
- GI50 (TK-10): > 12.5 µM (inactive)
- GI50 (NCI-H522): > 12.5 µM (inactive)
- GI50 (MOLT-4): > 12.5 µM (inactive)
- GI50 (OVCAR-8): > 12.5 µM (inactive)
- GI50 (OVCAR-3): > 12.5 µM (inactive)
- GI50 (BT-549): > 12.5 µM (inactive)
- GI50 (SN12C): > 12.5 µM (inactive)
- GI50 (SNB-75): 4.94 µM (inactive)
- GI50 (OVCAR-5): > 12.5 µM (inactive)
- GI50 (SF-539): > 12.5 µM (inactive)
- GI50 (MDA-MB-435): 5.73 µM (inactive)
- GI50 (A498): > 12.5 µM (inactive)
- GI50 (NCI-H226): > 12.5 µM (inactive)
- GI50 (HCT-15): > 12.5 µM
- GI50 (SF-295): > 12.5 µM (inactive)
- GI50 (SW-620): > 12.5 µM (inactive)
- GI50 (NCI/ADR-RES): > 12.5 µM (inactive)
- GI50 (SK-MEL-2): > 12.5 µM (inactive)
- GI50 (HT-29): > 12.5 µM (inactive)
- GI50 (DU-145): > 12.5 µM (inactive)
- GI50 (SNB-19): > 12.5 µM (inactive)
- GI50 (UACC-257): > 12.5 µM (inactive)
- GI50 (COLO 205): > 12.5 µM (inactive)
- GI50 (MDA-N): 3.88 µM (inactive)
- GI50 (UACC-62): > 12.5 µM (inactive)
- GI50 (Hs-578T): > 12.5 µM (inactive)
- GI50 (HCT-116): > 12.5 µM (inactive)
- GI50 (K562): > 12.5 µM (inactive)
- GI50 (786-0): > 12.5 µM (inactive)

Compound: N#Cc1c(N)c2c(c(-c3ccccc3)c1-c1ccccc1)C(=O)N(N)C2=O
- GI50 (MCF7): > 100 µM (inactive)
- GI50 (SR): > 100 µM (inactive)
- GI50 (CCRF-CEM): 42.7 µM (inactive)
- GI50 (NCI-H460): > 100 µM (inactive)
- GI50 (SK-MEL-5): 87.9 µM (inactive)
- GI50 (PC-3): 74.6 µM (inactive)
- GI50 (KM12): > 100 µM (inactive)
- GI50 (T47D): 49.4 µM (inactive)
- GI50 (SK-MEL-28): > 100 µM (inactive)
- GI50 (UO-31): 40.3 µM (inactive)
- GI50 (MDA-MB-231): > 100 µM (inactive)
- GI50 (OVCAR-4): > 100 µM (inactive)
- GI50 (NCI-H23): > 100 µM (inactive)
- GI50 (U-251): > 100 µM (inactive)
- GI50 (HL-60): 44 µM (inactive)
- GI50 (A549): 94 µM (inactive)
- GI50 (ACHN): > 100 µM (inactive)
- GI50 (Malme-3M): > 100 µM (inactive)
- GI50 (IGROV-1): 60 µM (inactive)
- GI50 (SF-268): > 100 µM (inactive)
- GI50 (CAKI-1): 25.2 µM (inactive)
- GI50 (SK-OV-3): > 100 µM (inactive)
- GI50 (M14): > 100 µM (inactive)
- GI50 (TK-10): > 100 µM (inactive)
- GI50 (NCI-H522): 38.6 µM (inactive)
- GI50 (RPMI-8226): 32.7 µM (inactive)
- GI50 (MOLT-4): 70.6 µM (inactive)
- GI50 (OVCAR-8): > 100 µM (inactive)
- GI50 (OVCAR-3): > 100 µM (inactive)
- GI50 (BT-549): > 100 µM (inactive)
- GI50 (SN12C): > 100 µM (inactive)
- GI50 (SNB-75): > 100 µM (inactive)
- GI50 (OVCAR-5): > 100 µM (inactive)
- GI50 (SF-539): 47.1 µM (inactive)
- GI50 (MDA-MB-435): > 100 µM (inactive)
- GI50 (NCI-H226): > 100 µM (inactive)
- GI50 (HCT-15): > 100 µM
- GI50 (SF-295): 89.3 µM (inactive)
- GI50 (SW-620): > 100 µM (inactive)
- GI50 (EKVX): > 100 µM (inactive)
- GI50 (NCI/ADR-RES): 56 µM (inactive)
- GI50 (SK-MEL-2): > 100 µM (inactive)
- GI50 (HT-29): > 100 µM (inactive)
- GI50 (HCC 2998): > 100 µM (inactive)
- GI50 (DU-145): > 100 µM (inactive)
- GI50 (SNB-19): > 100 µM (inactive)
- GI50 (UACC-257): > 100 µM (inactive)
- GI50 (COLO 205): > 100 µM (inactive)
- GI50 (MDA-N): > 100 µM (inactive)
- GI50 (UACC-62): > 100 µM (inactive)
- GI50 (Hs-578T): 60.1 µM (inactive)
- GI50 (HCT-116): > 100 µM (inactive)
- GI50 (K562): > 100 µM (inactive)
- GI50 (HOP-92): 26.9 µM (inactive)
- GI50 (786-0): 98.2 µM (inactive)
- GI50 (RXF 393): 58.7 µM (inactive)
